Measurements taken from a melting point compilation (Tetko et al.; mined from patent text by program, amines drawn as free bases though some values may be those of a salt).

melting point [°C] | SMILES
109 to 110 | O=C(CCCCN1CCCCC1)c1ccc2oc3ccc(C(=O)CCCCN4CCCCC4)cc3c(=O)c2c1
166 to 168 | OCC12COC(O1)C(O)C(O)C2O (stereo not drawn)
181 to 184 | CCc1cc(Nc2ccc(Sc3ccc(O)cc3)cc2)nc(N)n1
128 to 130 | O=C(O)COc1cccc2c1CCc1sc(SCCC(c3ccccc3)c3ccccc3)nc1-2
97 to 100 | Cc1cccc(-c2[nH]c(C(C)C)nc2-c2cccc(-c3cccc(S(C)(=O)=O)c3)c2)n1
226 | NC(=O)CN1C(=O)Cc2cc(Cl)ccc21
151 to 153 | O=Cc1cccc2c1nc(-c1c(F)cccc1F)n2Cc1c(F)cccc1F
180 | Clc1cccc(Nn2cnc3c2CCCC3)c1
204 | CCc1nc(C2CCCC2)n2nc(-c3ccc(OC)c(S(=O)(=O)N4CCOCC4)c3)[nH]c(=O)c12
> 270 | Cc1cc(CO)c(C(=O)O)c(S)n1
116 | CCOC(=O)C(C)Sc1ccc(-c2nc(=O)c3ccccc3s2)cn1 (stereo not drawn)
170 to 172 | COc1ccc(NC(=O)/C=C/c2ccc(N)c(F)c2)cc1N
122 to 124 | COc1ccc2cc(-c3cnc(Cc4ccccc4)o3)ccc2c1
210 to 212 | CN(C)c1ccc2c(c1)C(=O)CC(c1ccccc1OCc1ccccc1)=N2
> 300 | Nc1nc(F)nc2nc[nH]c12
230 | Cc1nnsc1C(=O)Nc1ccc(-n2nc(-c3nccs3)cc2C#N)cc1
153 to 154 | COc1cc(NCc2ccccc2C)ccc1C(=O)N1CCCC(CC(=O)N2CCN(C)CC2)c2cc(Cl)ccc21 (stereo not drawn)
110 to 115 | O=S(=O)(c1ccccc1)c1ccc2cnc(Nc3ccc(N4CCOCC4)cc3)nn12
135 to 136 | CCNC(=O)c1cc2ccc(OC)cc2n1CCNC(C)=O
164 to 165 | Cc1ccc(S(=O)(=O)c2ccc(N3CCC4(CC3)OCCO4)cc2)cc1
146 to 147 | CCC1(CCCCN2CCN(c3cccc4c3OCCO4)CC2)C(=O)Nc2cc(F)ccc21 (stereo not drawn)
83 to 84 | CSCC(=O)[C@H](CC1CCCCC1)NC(=O)[C@H](CC(C)C)NC(=O)OCc1ccccc1
78 to 80 | COC(Cc1cc(C)c(OCCc2nc(C(C)(C)C)oc2C)c(C)c1)C(=O)O (stereo not drawn)
241 to 242 | Cn1cc(C(=O)NCc2ccc(Cl)cc2)c(=O)c2cc(CCl)ccc21

melting point [°C] | SMILES
162 to 163 | O=C(NCc1ccccc1)c1ccnc(-n2ccc(-c3ccccc3)cc2=O)c1
98 to 101 | CCC(Oc1cncc(Cl)c1)C(=O)O (stereo not drawn)
115 to 116 | OCc1cn(Cc2cc(OCc3ccccc3)cc(OCc3ccccc3)c2)cc1-c1ccccc1
> 280 | CC1(C)CC2(CCNCC2)C(=O)O1
250 to 251 | Cc1ccc(-c2ccc3c(c2)C=C(C(=O)Nc2ccc(CS(=O)(=O)C4CCCCC4)cc2)CCO3)cc1
135 to 137 | CC(C(=O)O)c1ccc2oc(Cc3ccc(Cl)cc3)nc2c1 (stereo not drawn)
184 to 185 | CC(C)Cn1c(CNC(=O)OC(C)(C)C)c(-c2ccc(F)cc2)c2cc(OCc3ccccc3)ccc2c1=O
120 to 122 | O=C(O[C@H]1[C@H](OC(=O)c2ccccc2)[C@@H](CO)O[C@@H]1CO)c1ccccc1
144 to 146 | CCCn1c(CCOC)nc2c(N)nc3cc(OC(=O)NC(C)C)ccc3c21
70 to 72 | FC(F)Oc1cnnc(-c2cccc(C(F)(F)F)c2)c1
150 to 153 | Cc1c(C)c2c(c(C)c1N)CC(C)(CN1CCc3c([nH]c4ccccc34)C1)O2 (stereo not drawn)
76 to 78 | COc1cc2c(cc1F)CC(C)C2=O (stereo not drawn)
174 | Cc1ccc(C(=O)O)c(S(C)(=O)=O)c1
206 to 207 | Cc1sc(-c2ccc(Br)cc2)nc1O
94 to 97 | O[C@H](COc1cccc2[nH]ccc12)CN1CCC(c2c[nH]c3ccc(F)cc23)CC1
157 to 159 | Cc1oc(-c2ccc(SC(F)(F)F)cc2)nc1CCOc1ccc(CN(O)C(N)=O)cc1
230 to 232 | COc1ccc(-c2c(C(=O)O)c(=O)n(C)c3ccc(Cl)cc23)cc1OC
77 to 80 | Fc1cc(I)ccc1Nc1c(-c2nnc(NCCN3CCOCC3)o2)ccc(F)c1F
102 | Cc1nc2ccccc2n1C
149 to 151 | COc1cc2c(cc1OC)CN(c1nc(Cl)nc(N3CCc4cc(OC)c(OC)cc4C3)n1)CC2
252 to 253 | Cc1cccc(C(=O)Nc2c[nH]nc2C(=O)NCCO)n1
134 to 136 | Clc1ccc(C2OC3(CCN(Cc4ccccc4)CC3)N3CCCCC23)cc1 (stereo not drawn)
255 to 257 | CNS(=O)(=O)c1cn(C)c2cc(F)ccc2c1=O
216 to 217 | CCCCS(=O)(=O)NC1Cc2ccc(C3=NNC(=O)C(c4ccccc4)C3)cc2C1 (stereo not drawn)

melting point [°C] | SMILES
177 to 180 | O=C(O)CC12CCC(=O)N1C(=O)CC2
120 to 121 | CCOC(=O)c1nc(NC)sc1-c1ccccn1
146 to 147 | CC(C)(Sc1cc(C(C)(C)C)c(O)c(C(C)(C)C)c1)Sc1cc(C(C)(C)C)c(OCCO)c(C(C)(C)C)c1
158 to 159 | CCOC(=NC(=O)c1ccc(Cl)cc1Cl)N1Cc2ccccc2-c2ccccc2C1
286 | O=C(O)c1ccc2c(c1)S(=O)(=O)c1ccccc1O2
54 to 55 | CCOC(=O)C(=NO)C(C)C
45 to 46 | O=C(O)CCCCCCCCC=Cc1ccco1
158 to 160 | CCOC(=O)Cn1c(C(=O)NCc2nncn2-c2sc(CC)cc2C(=O)c2ccccc2Cl)cc2ccccc21
122 to 125 | CC(C)(C)c1cc(SC(Sc2cc(C(C)(C)C)c(O)c(C(C)(C)C)c2)C2CC=CCC2)cc(C(C)(C)C)c1O (stereo not drawn)
100 | COCCOC(=O)c1ccccc1Nc1nc(Nc2cc3c(cc2OC)CCN(CC(C)O)CC3)ncc1Cl (stereo not drawn)
88.5 to 90.5 | O=C(c1ccc2nonc2c1)N1CCCCC1
117 to 122 | O=C1CCC(C(=O)O)(c2ccc(F)cc2)CC1
69 to 70 | CCCCC(CC)COCCCN1C(C)=CC(=C(C#N)C(=O)OCC(CC)CCCC)C=C1C (stereo not drawn)
148 to 150 | CC(C)[C@H](NC(=O)OC(C)(C)C)[C@H]1CCn2c(c(C3=C(c4cn(-c5ccccc5)c5ccccc45)C(=O)OC3=O)c3ccccc32)C1
92 to 94 | CNc1ccc(C(O)(C(F)(F)Cl)C(F)(F)Cl)cc1
260 to 262 | O=C1CC2(C(=O)N1)C(=O)N1CCOc3cc(Cl)cc2c31 (stereo not drawn)
> 275 | CC(=O)Nc1ccc(-c2cc(-c3nc4ccccc4c(=O)n3-c3cccc(C)c3)sc2N2CCOCC2)cc1
209 to 210 | Cc1c(C#N)ccc(N)c1C#N
132 to 134 | COC(=O)/C=C/c1nc(C=O)ccc1OC
208 to 210 | Cc1ccc(S(=O)(=O)N2CCN(Cc3ccccc3)CCN(S(=O)(=O)c3ccc(C)cc3)CCN(S(=O)(=O)c3ccc(C)cc3)CC2)cc1
46 to 47 | C=CCN(C)C(=S)Nc1ccccc1CC(=O)OC
203 to 205 | CCN(CCNC(=O)c1n[nH]cc1NC(=O)c1cccc(C)n1)c1cccc(C)c1
129 to 130 | CCOC(=O)c1ccc(O)c(-n2cc3c(c2-c2ccccc2)c(=O)n(C)c(=O)n3C)c1
65 to 68 | CCCCOc1cc(C=CC(=O)N2CCN(c3ccc(NC(=N)c4cccs4)cc3)CC2)cc(OCCCC)c1O

melting point [°C] | SMILES
105 to 106 | N#Cc1ccc2c(c1)COC2(c1ccc(F)cc1)c1ccc(F)cc1
244 to 246 | O=C(O)C1(c2ccc(Cl)cc2)OCC2(CO1)c1ccccc1Oc1ccccc12
225 | COc1cc2c3c(c1O)C1(C=CC(=O)C=C1)CC3N(C)CC2 (stereo not drawn)
110 to 112 | CC(=O)OCC1OC(n2cc(C(N)=S)nn2)C(OC(C)=O)C1OC(C)=O (stereo not drawn)
66 to 68 | O=C(OC1CCCCCCCCCCC1)c1ccccc1C(=O)OC1CCCCCCCCCCC1
199 to 201 | COc1ccc(-c2cc3ccccc3[nH]2)cc1NC(=S)Nc1cc(Cl)cc(Cl)c1
100 to 101 | CCOC(=O)c1ccc(/C=C(\C)c2ccc3c(c2)C(C)(C)CCN3C)cc1
215 to 220 | O=C(O)c1cc(Cl)c(OCc2ccc(Cl)cc2)c(Cl)c1
298 | CNC(=O)c1cc(NCc2c(C)cccc2C)c2nc(C)[nH]c2c1
176 | CN(C)c1cccc(C(=C2CN(C(c3ccccc3)c3ccccc3)C2)S(C)(=O)=O)c1
60 to 62 | C=CCON(CCCCCCCCCCCCCCCCCC)CCCCCCCCCCCCCCCCCC
125 to 126 | O=C(NCCc1ccccc1)c1ccccc1I
158 to 159 | CC(C)CCNC(Nc1cc(C(F)(F)F)cc(C(F)(F)F)c1)=C(C#N)C#N
150 to 152 | CC(C)(C)c1ccc(OCC(O)CN2CCC3(CC2)CSC2=C(O3)c3ccccc3C(=O)C2=O)cc1 (stereo not drawn)
102 to 104 | O=S(=O)(c1ccccc1)C1CCC(COc2ccc(F)cc2)O1 (racemic)
96 to 97 | CCCCS(=O)(=O)Nc1c(C)c(C)c2c(c1C)C(c1ccc(C(C)C)cc1)CO2 (stereo not drawn)
187 to 189 | CC(C)CC(S)C(=O)NC1(C(=O)NC(Cc2ccc(-c3ccc(-c4cccc5ccccc45)cc3)cc2)C(=O)O)CCCC1 (stereo not drawn)
180 to 182 | CCn1nc2c(n1)C(N1CCN(C)CC1)=Nc1cc(Cl)ccc1N2
138 to 141 | Cc1c(-c2ccccc2)c(N2CC[C@H](N(C)C)C2)c2oc(C(=O)N(C)CCc3ccccc3)nc2c1C#N
222 to 230 | O=C(O)COc1ccc2cc(-c3csc(-c4ccccc4)n3)ccc2c1Br
133 to 136 | CCCC(=O)c1ccc2c(c1)C(C)C(=S)N2 (stereo not drawn)
175 to 176 | CN(C)C(=O)NCc1cccc(-c2nc(=O)c3ccccc3s2)n1
109 | CCOC(=O)C1=C(C)NN=C(CC)C1c1ccccc1 (stereo not drawn)

SMILES | melting point [°C]
CCCCC1(N2CCCC2)CC=C(c2[nH]c3ccccc3c2CCc2ccncc2)CC1 (stereo not drawn) | 187 to 195
CCOC(=O)C(=O)NC(=O)N1CC1C#N (stereo not drawn) | 104 to 106
CC(C)(CO)c1cc(NC(=O)C(C)(C)S(=O)(=O)C2CCOCC2)on1 | 191 to 192
